Measured values reported in patent US10465196B2, “Treatment of C9FTD/ALS by targeting RNA expanded repeat sequences” (THE SCRIPPS RESEARCH INSTITUTE, priority 2014, dated 2019).
pKd: −log10 of the molar value. “Also recorded” adds a separate entry of the source.

Columns and labels:
r(GGGGCC)8 [1] = assay: Optical melting of r(GGGGCC)8 in the presence of small molecule; type: binding; conditions: for increase of Tm of r(GGGGCC)8 / stabilization of the RNA (r(GGGGCC)8 stability): 1 μM RNA, 3 μM compound; for increase of Tm of r(GGGGCC)8 / stabilization of the RNA (r(GGGGCC)8 stability) / ΔG / Tm: 100 mM NaCl; for ΔG: 37° C.; for ΔG / ΔH / ΔS / Tm: r(GGGGCC)8 1 uM + compound 3 μM; for ΔH / ΔS: 10 mM Tris HCl pH 7.4, 100 mM NaCl
[2] = tested on: (GGGGCC)66-expressing cells; assay: RNA-FISH of nuclear foci; type: cell-based; conditions: compound treatment 24 h
Description: RNA fluorescence in situ hybridization (FISH) of ([NT]-expressing cells. […] Cells were hybridized with denatured Cy3-conjugated ([NT])4 probe (2 ng/μl) in hybridization buffer (50% formamide, 10% dextran sulfate, 0.1 mg/mL yeast tRNA, 2×SSC, 50 mM sodium phosphate) overnight at 37° C. Cells were then washed once with 40% formamide/1×SSC for 30 min at 37° C. and twice with DEPC-PBS at room temperature for 5 min, followed by counterstaining with Hoechst 33258 (1 μg/ml, Invitrogen). Immunostained cells were visualized using a Zeiss Axiovert Fluorescence Microscope with apotome module. […] To quantify foci-bearing cells, coverslips mounted on slides were scanned by Aperio ScanScope. Ten fields were randomly selected under 20× magnification. For each field, the number of foci-positive nuclei and the total number of nuclei were counted using MetaMorph software. These counts were used to determine the average percentage of foci-positive cells for each condition.

[3] = tested on: (GGGGCC)66-expressing cells; assay: Western blot analysis of c9RAN proteins (RAN translation); type: cell-based; conditions: HEK293 cells; 100 μM, 24 h (for compound 3)
r(GGGGCC)8 [4] = assay: Biolayer interferometry (BLI) binding affinity, r(GGGGCC)8; conditions: BLI kinetic binding; no additional cation
Description: (§1) The RNA (200 μL aliquots) was then added to a black 96-well plate (Greiner Bio-One). […] A sample with no compound was used as background. All experiments were performed at 30° C. with agitation set to 1000 rpm. The biotinylated RNA (ligand) was loaded onto the surface of streptavidin biosensors (SA) for 660 s. […] Biosensors were then washed in 1× Kinetics Buffer for 300 s followed by association of the compound (analyte) for 5000 s. Finally, dissociation of the ligand-analyte interaction was analyzed for 5000 s. The resulting curves were corrected by subtracting the response recorded on a sensor loaded with ligand (RNA) but incubated with no analyte (compound). Data analyses and curve fitting were completed using Octet Data Analysis, version 7.0. Experimental data were fitted using the 2:1 heterogeneous ligand (HL) curve fit. Global analysis of all data sets acquired for different analyte concentrations, assuming reversible binding, was completed using nonlinear least squares fitting. […] [formula] where [Analyte] is the concentration of compound, Req is the estimated response at equilibrium, kon is association constant, koff is dissociation constant.

r(GGGGCC)66 = assay: Identification of cellular RNA targets by 1a-CA-biotin pull-down and qRT-PCR (competitive profiling); type: cell-based; conditions: co-treatment with 1a-CA-biotin and compound
r(CGG)12 = assay: Biolayer interferometry (BLI) binding affinity, r(CGG)12
Description: as §1

[5] = tested on: hairpin with a fully paired stem; assay: Biolayer interferometry (BLI) binding affinity, fully paired hairpin
Description: as §1

r(GGGGCC)8 [6] = conditions: cited from earlier work
[7] = tested on: r(CGG)60-expressing cells; conditions: cited from earlier work
[8] = tested on: r(CCCCGG)66-expressing cells; assay: RNA-FISH of cells expressing antisense repeats; type: cell-based
Description: Western blot analysis and RNA-FISH of cells expressing antisense repeats. To examine the effect of 1a on RAN translation and foci formation in cells expressing antisense ([NT]) repeats, we utilized a previously described ([NT])66 expression vector (Gendron et al., 2013). Transfection, treatment, Western blotting, and RNA-FISH using a [NT] probe from IDT, were conducted as described above for ([NT])66-expressing cells.

[9] = tested on: r(CCCCGG)66-expressing cells; assay: RAN translation in cells expressing antisense repeats (immunoassay); type: cell-based; conditions: 100 μM, 24 h
Description: Immunoassay analysis of c9RAN proteins. As an alternative means to measure poly(GP) proteins, Meso Scale Discovery (MSD) electrochemiluminescence detection technology was utilized to establish sandwich immunoassays using polyclonal anti-GP as capture and detection antibodies. […] Poly(GP) proteins were also measured in lysates from cultured cells (10-35 μg of protein per well) prepare as described above, or from RIPA-soluble homogenates from frozen frontal cortical tissues (35 μg of protein per well). Brain homogenates were prepared as previously described (Almeida et al., 2013). In brief, tissue was lysed in cold RIPA buffer and sonicated on ice. Lysates were cleared by centrifugation at 100,000 g for 30 min at 4° C. The supernatant was collected and protein concentration was determined by BCA assay. […] A second MSD sandwich immunoassay was developed for the detection of poly(PR) proteins using polyclonal anti-PR as capture and detection antibodies. To validate specificity of the poly(PR) assay, lysates from cells transfected to express each possible protein RAN translated from the sense or antisense transcripts of the expanded C9ORF72 repeat [GFP-(GA)5, GFP-(GR)5, GFP-(GP)5, GFP-(PA)5, GFP-(PR)5] were assayed, as were lysates from cells expressing ([…]. 2F). Western blot analysis and RNA-FISH of cells expressing antisense repeats. […]

[10] = tested on: cells expressing (CGG)88 placed in the 5'UTR of GFP; assay: Western blot analysis of RAN translation in a FXTAS cell model; type: cell-based; conditions: COS7 cells, anti-GFP
Description: Western blot analysis of RAN translation in a FXTAS cell model. Studies were completed using a plasmid in which r(CGG)88 is embedded in the 5′ UTR of an open reading frame encoding GFP (Todd et al., 2013). Therefore, RAN products are fused to GFP and can be detected using an anti-GFP antibody (Todd et al., 2013). COS7 cells were grown as monolayers in 96-well plates in growth medium (1× DMEM, 10% FBS, and 1× GlutaMax (Invitrogen)). […] Compound 1a was added to the transfection cocktail, which was then applied to the cells. The transfection cocktail was replaced with growth medium containing 1a approximately 5 h post transfection, and the cells were incubated at 37° C. for 18 h. Cells were lysed in the plate using 100 μl/well of MPER Mammalian Protein Extraction Reagent (Pierce Biotechnology) containing 1 μl of Halt Protease Inhibitor cocktail (Thermo Scientific). Cellular proteins were separated by SDS-PAGE (10% polyacrylamide) and then transferred to a PVDF membrane by wet transfer method. Protein content was analyzed by Western blotting by using anti-GFP (Santa Cruz) or anti-β-actin (Sigma Aldrich) as primary antibodies and anti-IgG-horseradish peroxidase conjugate as the secondary antibody. Chemiluminescent signal was generated by SuperSignal West Pico Chemiluminescent substrate (Thermo Scientific), and the blot was imaged with X-ray film (Phenix Research).

C9ORF72+ iNeurons [11] = assay: Poly(GP) and poly(PR) inclusions in iNeurons (immunocytochemistry); type: cell-based, human; conditions: 2 or 4 μM, four days
[12] = tested on: (GGGGCC)66-expressing cells; assay: Poly(GP) MSD immunoassay of cell lysates; type: cell-based; conditions: 24 h
Description: Western blot analysis of c9RAN proteins. HEK293 cells were cultured in Opti-Mem supplemented with 10% FBS and 1% penicillin/streptomycin. […] Twenty-four hours later, cell pellets were collected. […] Western blotting was performed as previously described (Gendron et al., 2013). […] After centrifugation at 16,000×g for 20 min at 4° C., the supernatant was collected and protein concentration determined by BCA assay. […] Anti-GAPDH (1:10,000, BioDesign) was used to ensure equal loading among wells. Membranes were washed three times for 10 min in TBST and incubated with donkey anti-rabbit or anti-mouse IgG conjugated to horseradish peroxidase (1:5000; […] Protein expression was visualized by enhanced chemiluminescence treatment and exposure to film. Immunoassay analysis of c9RAN proteins. As an alternative means to measure poly(GP) proteins, Meso Scale Discovery (MSD) electrochemiluminescence detection technology was utilized to establish sandwich immunoassays using polyclonal anti-GP as capture and detection antibodies. […] Poly(GP) proteins were also measured in lysates from cultured cells (10-35 μg of protein per well) prepare as described above, or from RIPA-soluble homogenates from frozen frontal cortical tissues (35 μg of protein per well). Brain homogenates were prepared as previously described (Almeida et al., 2013). In brief, tissue was lysed in cold RIPA buffer and sonicated on ice. Lysates were cleared by centrifugation at 100,000 g for 30 min at 4° C. The supernatant was collected and protein concentration was determined by BCA assay.

C9ORF72 mRNA = assay: qRT-PCR of C9ORF72 mRNA in iNeurons; type: cell-based, human; conditions: 4 μM, 4 d; all variants and long form
Description: RNA was extracted using the Direct-Zol RNA kit combined with in-column DNase I digestion, as per the manufacturer's instructions (Zymo Research, Irvine, Calif., USA). RNA integrity was obtained using the Agilent 2100 Bioanalyzer (Agilent Technologies, Santa Clara, Calif., USA). cDNA was obtained after reverse transcription polymerase chain reactions (RT-PCR) using approximately 500 ng of RNA with random primers and the High Capacity cDNA Transcription Kit (Applied Biosystems, Foster City, Calif., USA) as per the manufacturer's instructions. […] Relative quantification of C9ORF72 variants was determined using the ΔΔCt method and normalized to GAPDH.

C9ORF72+ iNeurons [13] = assay: RNA-FISH of RNA foci in iNeurons; type: cell-based, human; conditions: three C9ORF72+ iNeuron lines; 2 μM, four days
Description: Qiagen) for 15 min at 37° C., or with DNase I (3 U/ml; Invitrogen) for 30 minutes at room temperature, prior to dehydration. Cells were incubated in hybridization buffer (10% dextran sulfate, 50% formamide, 50 mM sodium phosphate buffer (pH 7), 2×SSC) at 66° C. for 20-60 min. […] Cells were hybridized with probe in a sealed, light-protected chamber for 16 h-24 h at 66° C. The coverslips were subsequently washed with 0.1% Tween-20/2×SSC for 5 min followed by three 10 min stringency washes in 0.1×SSC at 66° C. The cells were stained with Hoechst (Invitrogen), rinsed with DEPC-treated water, dehydrated through 70% and 100% ethanol and air dried. Coverslips were mounted with Prolong Gold antifade reagent (Life Technologies). […] For each of 3 cell lines, 3 fields were randomly selected per condition. For each field, the number of foci-positive nuclei and the total number of nuclei were counted to determine the average percentage of foci-positive cells.

Structure (SMILES)	increase of Tm of r(GGGGCC)8 (r(GGGGCC)8 [1])	stabilization of the RNA (r(GGGGCC)8 stability) (r(GGGGCC)8 [1])	ΔG (r(GGGGCC)8 [1]) [kcal/mol]	ΔH (r(GGGGCC)8 [1]) [kcal/mol]	ΔS (r(GGGGCC)8 [1]) [cal/K · mol]	Tm (r(GGGGCC)8 [1]) [°C]	percentage of foci-positive cells [2]	poly(GA) protein production (RAN translation) [3]	synthesis of poly(GP) proteins (RAN translation) [3]	pKd (r(GGGGCC)8 [4])	amount of r(GGGGCC)66 that forms an adduct with 1a-CA-biotin in the presence of compound (r(GGGGCC)66)	Kd for r(CGG)12 compared with r(GGGGCC)8 (r(CGG)12)	binding to a hairpin with a fully paired stem compared with r(GGGGCC)8 [5]	also measured
CCN(CC)CCNC(=O)c1cc2cc(NC(=O)c3cc4cc(N)ccc4[nH]3)ccc2[nH]1 [Compound 3]	did not significantly affect	did not significantly affect	-9.10 ± 0.24	-71.1 ± 1.5	-200 ± 4	82.2 ± 0.2	not	did not influence	modestly inhibited	4.80	significantly depleted	similar	bind more weakly	
C[n+]1ccc(-c2c3nc(c(-c4cc[n+](C)cc4)c4ccc([nH]4)c(-c4cc[n+](C)cc4)c4ccc([nH]4)c(-c4cc[n+](C)cc4)c4nc2C=C4)C=C3)cc1 [TMPyP4]														binding to r(GGGGCC)8 in vitro (r(GGGGCC)8 [6]): binds
Cc1c2cc[n+](CCN3CCCCC3)cc2c(C)c2c1[nH]c1ccc(O)cc12 [Compound 1a]	3.1 °C	0.95 kcal/mol	-9.93 ± 0.15	-74.4 ± 1.0	-208 ± 3	84.7 ± 0.2	significantly decreased	significantly decreased	significantly decreased	5.01	significantly depleted	similar	bind more weakly	nuclear foci in r(CGG)60-expressing cells [7]: does reduce nuclear foci; percentage of cells bearing r(CCCCGG) foci [8]: no change; poly(GP) proteins RAN translated from antisense transcripts [9]: no effect; poly(PR) proteins RAN translated from antisense transcripts [9]: no effect; RAN translation in cells expressing (CGG)88 [10]: inhibits RAN translation; downstream canonical translation (GFP) [10]: does not affect; poly(PR) expression (inclusions), synthesized from the antisense transcript (C9ORF72+ iNeurons [11]): no change; percentage of cells with poly(GP) inclusions (RAN translation of poly(GP)) (C9ORF72+ iNeurons [11]; listed as la): significantly decreased; also recorded: dose-dependent decrease; decrease in poly(GP) protein ([12]; 25 μM): 10%; decrease in poly(GP) protein ([12]; 50 μM): 18%; decrease in poly(GP) protein ([12]; 100 μM): 47%; C9ORF72 mRNA levels (C9ORF72 mRNA): no effect; percentage of cells with RNA foci (C9ORF72+ iNeurons [13]): significantly decreased
